The series has as its system neurons of primary cortical cultures. Description: Neuronal viability (MTT) in non-stimulated cultures. It counts as cell-based, rat. As to the method: Cultures were prepared from cerebral cortex of 18-day-old Wistar rat embryos, both genders indistinctly included. Unless otherwise indicated, glial growth was inhibited after 7 days in vitro (DIVs), experimental treatments taking place after 12 DIVs. These cultures present a high percentage of neurons, combined with glial cells, mostly astrocytes. To induce excitotoxicity, cultures were incubated with NMDA (100 µM) and its co-agonist glycine (10 µM), herein denoted simply as NMDA, which induce a strong excitotoxic response in mature neurons but have no effect on astrocyte viability,[47]. When indicated, cultures were preincubated for 30 min with indicated concentrations of Tat-derived CPPs before NMDA treatment, peptides being kept in the medium along treatment. Total cell or neuronal viability assessment was established by the thiazolyl blue formazan (MTT) reduction assay. Further details are provided as Supplementary material. […]
skull for 10 min. Br ain injury encompas se s damage to vas cular endothelium, platelet activation, and subs equent microvascula r thrombotic occlus ion of the irradiate d region. The ar eas underneath this ste reotaxic position that result irradiate d ar e the prima ry motor cortex and the prima ry soma tos ens ory cortex (hindlimb and forelimb). Once completed surgery, the incision was sutured, and mice were allowed to recover. […]

For the substance Ac-YGRKKRRQRRRPPFVLFHKIPLDG-NH2 [TT1Ct], the Intrinsic toxicity result (concentrations lower than 25 µM) is given as “not intrinsically toxic”. Under “higher dose employed (25 µM)”, the “Toxicity for non-stimulated cultures” value is listed as “toxic”.

The values above are taken from PMC11984388, “A brain-accessible peptide modulates stroke inflammatory response and neurotoxicity by targeting BDNF-receptor TrkB-T1 specific interactome” (Theranostics, 2025).
